How the values were obtained:
BMDCs [1] = assay: Bone marrow derived dendritic cell presentation to 24.8 and DN32 NKT cells (IL-2 ELISA); type: cell-based, mouse; conditions: BMDCs cultured with inhibitor from day 6 to day 10
Procedure: FIG. 17D is a line graph showing IL-2 production in bone marrow derived dendritic cells incubated for 4 days with BMS212122 (◯) or vehicle (●) were treated with α-galcer for 3 hours, washed and co cultured with DN32. IL-2 concentrations were measured by ELISA of 24 hour culture supernatants. *, p<0.01.
(§1) APCs were incubated with 100 ng/mL α-galcer (kindly provided by Dr. H. Ploegh) for 3 hours, washed three times in PBS and aliquoted into a 96 well plate at 10^6 cells/mL. DN32 cells were added at 1:1 E:T ratio unless otherwise indicated. CD4^+ cells were isolated from spleens of OT-II transgenic mice using positive selection on CD4 magnetic beads (Miltenyi Biotec) and incubated with APCs and 100 μg/mL ovalbumin. […] Mouse IL-2 production was assessed by ELISA (OptEIA, BD PharMingen) of 24 or 40 hour culture supernatants. […]
(§2) Bone marrow was extracted from the femurs of C57BL6 or MTPmx1cre mice, washed once in PBS and resuspended in R10 supplemented with culture supernatant from murine GM-CSF transfected cells for a final concentration of 200 U/mL GM-CSF. […] Differentiated cells were harvested by gentle pipetting, washed in PBS, and analyzed by flow cytometry for surface expression of CD11c and I-A^b. […] After 5 days cells were dislodged by gentle pipetting, analyzed by flow cytometry and assayed for antigen presentation. […]

moDCs = assay: Human moDC presentation of α-galcer to DN32 iNKT cells (IL-2 ELISA); type: cell-based; conditions: moDCs differentiated in presence of inhibitor
Procedure: FIG. 20G is a line graph showing IL-2 production in human moDCs differentiated in the presence of BMS212122 (◯) or vehicle (●) were incubated with α-galcer. IL-2 concentrations were measured by ELISA of 24 hour culture supernatants. *, p<0.05; **, p<0.01.
APCs were incubated with 100 ng/mL α-galcer (kindly provided by Dr. H. Ploegh) for 3 hours, washed three times in PBS and aliquoted into a 96 well plate at 10^6 cells/mL. DN32 cells were added at 1:1 E:T ratio unless otherwise indicated. CD4^+ cells were isolated from spleens of OT-II transgenic mice using positive selection on CD4 magnetic beads (Miltenyi Biotec) and incubated with APCs and 100 μg/mL ovalbumin. The 24.8 NKT cell line was incubated with APCs in the absence of added antigen at E:T=2:1 unless otherwise indicated. Mouse IL-2 production was assessed by ELISA (OptEIA, BD PharMingen) of 24 or 40 hour culture supernatants. […]
as §2

BMDCs [2] = assay: Flow cytometry of surface markers on BMDCs; type: cell-based, mouse
Procedure: FIG. 17E is a flow cytometric analysis showing BMDCs cultured for 4 days with BMS212122 were stained with FITC-conjugated mAb 1B1. Dashed line represents the isotype control.
FIG. 18 is flow cytometric analysis of in vitro differentiated bone marrow cells from wild type mice incubated with BMS212122 (MTPi) or vehicle Surface staining was performed using antibodies to MHC II (FITC-conjugated) and CD11c (PE-conjugated).
Bone marrow was extracted from the femurs of C57BL6 or MTPmx1cre mice, washed once in PBS and resuspended in R10 supplemented with culture supernatant from murine GM-CSF transfected cells for a final concentration of 200 U/mL GM-CSF. BMDCs were then cultured in bacteriological plates for 12-14 days as described. Differentiated cells were harvested by gentle pipetting, washed in PBS, and analyzed by flow cytometry for surface expression of CD11c and I-A^b. Human monocytes were harvested from the peripheral blood of healthy volunteers by positive selection on CD14 magnetic beads (Miltenyi Biotec) and cultured in R10 medium at 10^6 cells per mL supplemented with 200 U/mL recombinant hIL-4 and 300 U/mL recombinant hGM-CSF (PeproTech, Rocky Hill, N.J.). After 5 days cells were dislodged by gentle pipetting, analyzed by flow cytometry and assayed for antigen presentation.
Mouse cells were stained using the following antibodies: FITC-conjugated α-CD1d (1B1, PharMingen); PE-conjugated α-CD11c (HL3, PharMingen); FITC-conjugated α-1-A^d (AMS-32.1, PharMingen); PE-conjugated α-CD69 (H1.2F3, PharMingen); PE-conjugated α-B220 (RA3-6B2, PharMingen). Human cells were stained using: PE-conjugated α-CD83 (550634, PharMingen); FITC-conjugated α-HLA-A,B,C (557348, PharMingen); α-HLA DR,DP,DQ (32381A, PharMingen); α-CD1d (42.1 or 51.1.3); α-mouse IgG+IgM (AMI1708, Biosource, Camarillo, Calif.). Staining was performed in the presence of Via-Probe (PharMingen) and analyzed with a FACSort flow cytometer (Becton Dickinson).
The role of MTP in CD1d presentation by primary mouse APCs was examined. Splenocytes were isolated from wild type mice and assayed for their ability to present an exogenous antigen, α-galcer, to DN32 NKT cells and their ability to stimulate the autoreactive NKT cell line 24.8. When splenocytes were incubated with BMS212122 for 24 hours prior to addition of NKT cells, their ability to present exogenous and endogenous CD1d-restricted antigens was reduced (FIG. 17B). […] Dendritic cells were then isolated from wild type splenocytes by positive selection on CD11c magnetic beads. […] Dendritic cells from mouse bone marrow (BMDC) were cultured with BMS212122 or vehicle control after 6 days of differentiation in the presence of GM-CSF. On day 10, BMDCs were collected and cocultured with NKT cells. […]

splenocytes = assay: Splenocyte / CD11c+ dendritic cell CD1d-restricted presentation to DN32 and 24.8 NKT cells (IL-2 ELISA); type: cell-based, mouse
Procedure: FIG. 17B is a series of bar charts showing IL-2 production of splenocytes isolated from wild type mice in the presence or absence of exogenous antigens. Splenocytes were incubated for 24 hours with BMS212122 and washed. Exogenous antigens ovalbumin or α-galcer was added as indicated. Splenocytes were then co cultured with: CD4^+ cells from an OT-II transgenic mouse (left); DN32 NKT cells (center); or autoreactive 24.8 NKT cells (right). IL-2 concentrations were measured by ELISA of 40 hour culture supernatants. *, p<0.05.
FIG. 17C is a bar chart showing IL-2 production of splenocytes or bone marrow derived dendritic cells co cultured with 24.8 NKT cells and incubated for 24 hours with BMS212122. Anti-CD1d mAb 1B1 or an isotype control was added as indicated. IL-2 concentrations were measured by ELISA of 40 hour culture supernatants. (nd=not detected) *, p<0.02.
as §1

MTP = MTP (Homo sapiens, UniProt P55157); conditions: cited from earlier work
Sequence of MTP (P55157 19-894, species assumed): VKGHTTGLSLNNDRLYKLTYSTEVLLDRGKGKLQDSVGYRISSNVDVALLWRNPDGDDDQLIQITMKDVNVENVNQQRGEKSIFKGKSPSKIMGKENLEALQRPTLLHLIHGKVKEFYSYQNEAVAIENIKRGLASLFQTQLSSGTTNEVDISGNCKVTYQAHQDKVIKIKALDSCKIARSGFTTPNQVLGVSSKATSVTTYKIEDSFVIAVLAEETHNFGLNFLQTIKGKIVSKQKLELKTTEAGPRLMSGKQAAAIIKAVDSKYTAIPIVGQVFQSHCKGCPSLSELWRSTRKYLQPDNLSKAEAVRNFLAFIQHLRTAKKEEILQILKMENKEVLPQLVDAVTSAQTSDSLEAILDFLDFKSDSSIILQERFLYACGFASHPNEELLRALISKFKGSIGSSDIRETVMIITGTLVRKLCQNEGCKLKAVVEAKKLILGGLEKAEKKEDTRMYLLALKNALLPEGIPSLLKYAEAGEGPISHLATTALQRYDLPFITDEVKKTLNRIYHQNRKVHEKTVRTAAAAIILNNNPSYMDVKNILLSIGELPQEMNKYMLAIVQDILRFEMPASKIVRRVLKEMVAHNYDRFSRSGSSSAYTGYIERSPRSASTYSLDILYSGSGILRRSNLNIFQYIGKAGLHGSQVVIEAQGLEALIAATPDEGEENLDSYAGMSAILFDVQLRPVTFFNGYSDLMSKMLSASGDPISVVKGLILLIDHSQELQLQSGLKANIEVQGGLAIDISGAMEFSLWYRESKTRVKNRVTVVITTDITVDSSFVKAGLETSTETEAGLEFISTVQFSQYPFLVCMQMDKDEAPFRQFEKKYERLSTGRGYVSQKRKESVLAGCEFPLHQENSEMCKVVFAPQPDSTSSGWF
Sequence of MTP (P07237 18-508 partner, species assumed): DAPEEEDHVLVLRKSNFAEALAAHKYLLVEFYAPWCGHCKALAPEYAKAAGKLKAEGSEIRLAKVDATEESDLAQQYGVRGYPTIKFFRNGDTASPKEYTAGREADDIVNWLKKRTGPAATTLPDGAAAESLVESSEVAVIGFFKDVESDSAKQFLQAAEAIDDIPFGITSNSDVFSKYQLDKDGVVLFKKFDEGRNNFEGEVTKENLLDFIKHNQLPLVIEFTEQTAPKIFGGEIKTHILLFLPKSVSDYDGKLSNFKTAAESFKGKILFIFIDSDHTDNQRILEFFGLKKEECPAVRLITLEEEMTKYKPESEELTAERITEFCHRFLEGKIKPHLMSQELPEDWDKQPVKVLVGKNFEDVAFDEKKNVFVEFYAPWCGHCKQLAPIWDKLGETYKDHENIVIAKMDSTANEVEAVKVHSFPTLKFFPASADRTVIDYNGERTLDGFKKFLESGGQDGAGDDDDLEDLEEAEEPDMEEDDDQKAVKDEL

In the case of Cc1ccc2c(nc(C)n2CCCCC2(C(=O)NCC(F)(F)F)c3ccccc3-c3ccccc32)c1NC(=O)c1ccccc1-c1ccc(C(F)(F)F)cc1 [BMS212122, 9-[4-[2,5-Dimethyl-4-[[[4′-(trifluoromethyl)[1,1′-biphenyl]-2-yl]carbonyl]amino]-1H-benzimidazol-1-yl]butyl]-N-(2,2,2-trifluoroethyl)-9H-fluorene-9-carboxamide], the “presentation of α-galcer to DN32 cells” value (BMDCs [1]) is reported as “significant effect”, the “capacity to present α-galcer to DN32 iNKT cells” value (moDCs) is reported as “reduced capacity” and the CD11c surface staining (BMDCs [2]; BMDCs) is reported as “unaffected”. For the same compound, the “MHC class II surface staining” value (BMDCs [2]; BMDCs) was “unaffected”, the “CD1d expression on BMDCs, % of vehicle controls” value (BMDCs [2]; after 4 days of treatment) was 66% and the “CD1d expression on BMDCs, % of level in vehicle treated controls” value (BMDCs [2]; one day after addition) was 86%. For the same compound, the “effect on presentation of an endogenous ligand to 24.8 NKT cells” value (splenocytes; CD11c-positive dendritic cell population from splenocytes) was “highly pronounced”, the “ability to present exogenous and endogenous CD1d-restricted antigens” value (splenocytes; splenocytes incubated 24 hours with inhibitor prior to addition of NKT cells) was “reduced” and the “transfer of triglycerides, phospholipids, and cholesterol esters in vitro” value (MTP) was “blocks transfer”.

— patent US20050234073A1, “Methods of inhibiting inflammation” (priority 2003, published 2005)
